Experimental findings from patent US11111500B2, “Mutated protoporphyrinogen IX oxidase (PPX) genes” (CIBUS US LLC, priority 2010, dated 2021) are described below.

Data set [1] relates to potato protoplasts (protoplast derived microcalli). Put plainly: Flumioxazin kill curve with cell suspension and shoot tip-derived protoplasts. The note with it: for # Of calli in 3 beads, # / # Of calli in 3 beads, %: Non treated protoplast + PEG; for # Of calli in 3 beads, # / # Of calli in 3 beads, % / # of calli in 3 beads, # / # of calli in 3 beads, %: one month; for # Of calli in 3 beads, % / # of calli in 3 beads, %: % of average control; for # of calli in 3 beads, # / # of calli in 3 beads, %: Stop-GFP + Correcting GRON. Type of data set: cell-based. Here is the method:
Herbicide selection experiments were performed to determine the concentration of herbicide necessary to kill protoplast derived microcalli in a defined treatment period. […] The herbicide was suspended in DMSO, with the final concentration of DMSO in the herbicide treatments being 1%. Development of cells was evaluated under the microscope once a week. […] A flumioxazin concentration of 0.032 mM is sufficient to prevent microcallus development from potato protoplasts.
About 200 shoot tips of 2-8 week-old in vitro shoots that have been cultured under a regular day/night regime, or, preferably were kept for two days before protoplast isolation in the dark, shoots may be cut into small pieces with a scalpel in a petri dish with sterile water. After all tips have been cut, the water is replaced with protoplast culture medium, preferably BN (B5 Salts and Vitamins (Phytotechnology Laboratories), glucose 20 g/L, mannitol 70 g/L, alpha naphthalene acetic acid 5 mg/L, additional CaCl2×2H2O 600 mg/L, casein hydrolysate 250 mg/L, cystcine-HCL 10 mg/L, polyvinylpyrrolidone (MW 10,000) 5 g/L. After approximately 1-2 h, the protoplast culture medium is replaced with enzyme solution, for example consisting of medium BN, in which 0.5% (w/v) Cellulase YC and 0.75% (w/v) Maccrozyme R10 (both from Karlan Research Products, Cottonwood, Ariz.), 1 g/L bovine serum albumin, and 1 g/L 2-morpholinoethanesulfonic acid are dissolved. The ratio of the number of shoot tips over the volume of enzyme solution can be between 10 and 16, preferably 13. The dish with shoot tip pieces in enzyme solution is incubated for at 25° C.-30° C., preferably 28° C., in darkness on a shaker set to about 50 rpm. After overnight incubation the protoplast suspension is purified using an iodixanol density gradient (adapted from Optiprep Application Sheet C18; Purification of Intact Plant Protoplasts; Axis-Shield USA, 10 Commerce Way, Norton, Mass. 02776). After the density gradient centrifugation, the band with purified protoplasts is removed together with about 5 mL W5 medium (Frigerio et al., 1998). The protoplast density and yield are determined with a hemocytometer. The protoplasts density is adjusted to 1×10^6/mL in BN medium containing 2 mg/L 2,6-dichlorobenzonitrile (cellulose synthase inhibitor), and the protoplasts are cultured in darkness at 30° C. for about 16 h.
1. Fast growing cell suspensions are used, preferably three days after their last subculture. 1.5 mL settled cell volume is transferred to about 15 ml BN medium, which after 2 h is replaced with enzyme solution. 2. The protoplast purification is followed immediately by the GRON/PEG treatment.
The protoplast suspension is mixed with an equal volume of W5 medium, transferred to a 50 mL centrifuge tube, and centrifuged for 10 min at the lowest setting of a clinical centrifuge (about 50×g). The supernatant is removed and replaced with TM medium (Klaus, S. Markerfreie transplastome Tabakpflanzen (Marker-free transplastomic tobacco plants). PhD Dissertation, 2002, Ludwig-Maximilians-Universitát Múnchen, 109 pp), adjusting the protoplast density to 5×10^6/mL. Aliquots of 100 μL containing 5×10^5 protoplasts each are distributed into 12 mL round bottom centrifuge tubes. GRONs (such as those shown in Table 14) targeted at one or more mutations in one or both of the mitochondrial and plastidal PPX genes are then introduced into the protoplasts using a PEG treatment. To introduce the GRONs into the protoplasts, 12.5 μg GRON dissolved in 25 μL purified water and 125 μL of a polyethylene glycol solution (5 g PEG MW 1500, 638 mg mannitol, 207 mg CaNO3×4H2O and 8.75 mL purified water; pH adjusted to about 9.0) is added. After a 10-30 min incubation on ice, the protoplast-PEG suspension is washed with W5 medium and resuspended in medium BN. The suspension is kept overnight in darkness at room temperature.
One day after the GRON introduction, protoplasts are embedded in calcium alginate. […]

Data set [2] is described as follows: Solubility of herbicide in liquid culture selection media. Type of data set: physicochemical. The protocol: Liquid culture selection conditions were developed for both sulfentrazone and flumioxazin. Cultures of 1 mL volume were tested with sulfentrazone and flumioxazin concentrations ranging from 0 to 10 mM. The 0 mM samples had 25 μL DMSO (2.5%) to mimic the concentration of DMSO in the samples containing 10 mM herbicide. Each tube was inoculated with 10 μL of an overnight culture of HemG cells complemented with the wildtype PPX plasmid to ensure uniformity. Spectrophotometric readings (OD600) were taken for each sample (1:4 dilution) and a sample of each plated on LB-Chlor-IPTG plates to determine whether the OD600 correlated with the number of viable colonies. A 10% dilution of the overnight culture was plated for the sulfentrazone-treated cells and a 1% dilution for the cells treated with flumioxazin was plated (see results in Tables 8a-f and 9a-d).
Both sulfentrazone and flumioxazin precipitate out in the liquid media, causing it to appear opaque even before inoculating bacteria.

For data set [3], the system named is leaf disc explants of in vitro grown potato plants. Put plainly: Leaf disk kill curve (callus formation in leaf disc explants). The class given is cell-based. The protocol:
Aimed at establish the concentration of sulfentrazone that will inhibit callus formation in leaf disc explants, leaf discs were punched with a sterile hole punch from 5 weeks old in vitro grown potato plants. The leaf discs were cultured in petri dishes containing solid Haberlach culture medium containing various concentrations of Sulfentrazone in a final concentration of 1% DMSO. Six leaf discs cultured at each herbicide concentration. Plates were sealed with micropore tape and incubated at room temperature (approximately 23° C.). In an initial experiment, 7.8 μM sulfentrazone, the lowest concentration tested in that experiment, was sufficient to stop callus formations and bleach all leaf discs within 20 days. […] Similar leaf disc kill curve experiments were performed using saflufenacil where 0.5 μM of this herbicide was sufficient to inhibit callus formation in almost all leaf discs after 20 days.

Read-outs that look alike come from different tables or passages of the source.

For `C#CCN1C(=O)COc2cc(F)c(N3C(=O)C4=C(CCCC4)C3=O)cc21` [flumioxazin], the “concentration sufficient to prevent microcallus development from potato protoplasts” value in data set [1] is 0.032 mM. Also, in data set [1] (flumioxazin 0.0156 μM), the “# Of calli in 3 beads, #” value stood at 40; the “# Of calli in 3 beads, %” value stood at 25%; the “# of calli in 3 beads, #” value came to 83; the “# of calli in 3 beads, %” value is listed as 39%. Also, in data set [1] (flumioxazin 0.0312 μM), the “# Of calli in 3 beads, #” value came out at 8; the “# Of calli in 3 beads, %” value is given as 5%; the “# of calli in 3 beads, #” value is on record as 11; the “# of calli in 3 beads, %” value is on record as 4%. In data set [1] (flumioxazin 0.0468 μM), the “# Of calli in 3 beads, #” value amounted to 0.0; the “# Of calli in 3 beads, %” value is 0.0%; the “# of calli in 3 beads, #” value amounted to 0.0; the “# of calli in 3 beads, %” value was 0.0%. Moreover, in data set [1] (flumioxazin 0.0624 μM), the “# Of calli in 3 beads, #” value was 0; the “# Of calli in 3 beads, %” value was determined as 0%; the “# of calli in 3 beads, #” value came to 0; the “# of calli in 3 beads, %” value is recorded as 0%. Also, in data set [1] (any concentration tested, 1% DMSO), the “microcalli development after one month” value was “no microcalli developed at any concentration tested”. Besides, the “concentration sufficient to kill all cells within a week” value in data set [1] (initial kill curve) was found to be 125 µM. Besides, in data set [2] (liquid culture selection media, 0 to 10 mM, DMSO 2.5%), the “solubility in liquid media” value is reported as “deficient solubility”.
On to `Cc1nn(-c2cc(NS(C)(=O)=O)c(Cl)cc2Cl)c(=O)n1C(F)F` [sulfentrazone], for which the “solubility in liquid media” value in data set [2] is “eventually goes into solution”. The “concentration sufficient to stop callus formations and bleach all leaf discs within 20 days” value in data set [3] (initial experiment, lowest concentration tested, 1% DMSO) was found to be 7.8 µM. Moreover, the “time after which callus initiated on the leaf veins of some leaf discs” value in data set [3] (leaf discs grown on 2.0 μM) was determined as 13 days. In addition, the “concentration sufficient to inhibit callus formation in almost all leaf discs after 20 days” value in data set [3] (solid Haberlach culture medium, 1% DMSO) came to 3.0 µM.
